# Results published in patent US20130184313A1, “NICOTINIC ACETYLCHOLINE RECEPTOR LIGANDS AND THE USES THEREOF” (The Board of Trustees of the University of Illinois, priority 2009, published 2013).
# Where “and” joins values, the source holds several entries; their conditions need not be identical. Equal entries are not always repeated. Structures can show the parent of a compound that is named as a salt. Marks after values point to notes of the source that are not given here.
# Experiments:
# male Balb/cJ mice = assay: Forced swim test in mice; assay type: in vivo
# Description: The subjects were male Balb/cJ mice obtained from Jackson Laboratory, Bar Harbor, Me. Mice were housed 4 per cage under controlled conditions of temperature, relative humidity and light-dark cycle with free access to food and water.
# Mice were individually placed into clear glass cylinders (i.e., 15 cm tall×10 cm wide, 1 L beakers) containing 23±1° C. water 12 cm deep (approximately 800 mL). The time the animal spent immobile was recorded over a 6 min trial. Immobility was described as the postural position of floating in the water.
# The mice were injected intraperitoneally (i.p.) 30 minutes before the start of the test. In another set of experiments, the test compounds were administered orally (p.o.) 30 minutes before the start of the test.
# The length of time spent floating was analyzed by Analysis of Variance (ANOVA) with dose of drug as the between-subject factor and time spent immobile across the 6 min test as the dependent variable. Post-hoc comparisons between the treatment groups and control group were made using Fisher's PLSD test. A significance level of 5% was used throughout.
# [1] = target: α-Bungarotoxin-insensitive (α4β2) neuronal nicotinic receptor (Rattus norvegicus, UniProt P09483+P12390); assay: biochemical; conditions: read-out: percent inhibition of the control radioligand specific binding
# α4β4 nicotinic receptor = target: T1, α4β4 nicotinic receptor (Rattus norvegicus, UniProt P09483+P12392); assay type: binding
# T1 construct: expressed in transfected cells; host or cells: stably transfected cell lines (e.g., HEK293, COS, CHO, NIH3T3)
# T1 sequence (P09483 31-630): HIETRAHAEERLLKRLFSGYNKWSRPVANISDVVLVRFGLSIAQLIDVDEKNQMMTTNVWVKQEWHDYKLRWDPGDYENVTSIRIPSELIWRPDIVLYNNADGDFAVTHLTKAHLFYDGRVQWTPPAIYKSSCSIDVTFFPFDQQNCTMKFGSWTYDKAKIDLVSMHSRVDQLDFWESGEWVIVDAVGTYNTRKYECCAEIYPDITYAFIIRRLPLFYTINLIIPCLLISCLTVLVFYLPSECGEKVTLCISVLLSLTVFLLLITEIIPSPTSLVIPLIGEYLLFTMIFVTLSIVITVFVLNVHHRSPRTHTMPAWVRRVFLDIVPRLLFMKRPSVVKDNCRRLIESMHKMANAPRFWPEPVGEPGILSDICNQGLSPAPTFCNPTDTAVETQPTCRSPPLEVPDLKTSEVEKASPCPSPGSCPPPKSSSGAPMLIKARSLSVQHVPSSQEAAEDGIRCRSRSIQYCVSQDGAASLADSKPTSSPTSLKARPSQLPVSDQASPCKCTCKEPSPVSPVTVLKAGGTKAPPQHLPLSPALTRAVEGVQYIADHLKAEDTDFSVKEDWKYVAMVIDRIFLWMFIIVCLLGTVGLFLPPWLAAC
# T1 sequence (P12392 21-495): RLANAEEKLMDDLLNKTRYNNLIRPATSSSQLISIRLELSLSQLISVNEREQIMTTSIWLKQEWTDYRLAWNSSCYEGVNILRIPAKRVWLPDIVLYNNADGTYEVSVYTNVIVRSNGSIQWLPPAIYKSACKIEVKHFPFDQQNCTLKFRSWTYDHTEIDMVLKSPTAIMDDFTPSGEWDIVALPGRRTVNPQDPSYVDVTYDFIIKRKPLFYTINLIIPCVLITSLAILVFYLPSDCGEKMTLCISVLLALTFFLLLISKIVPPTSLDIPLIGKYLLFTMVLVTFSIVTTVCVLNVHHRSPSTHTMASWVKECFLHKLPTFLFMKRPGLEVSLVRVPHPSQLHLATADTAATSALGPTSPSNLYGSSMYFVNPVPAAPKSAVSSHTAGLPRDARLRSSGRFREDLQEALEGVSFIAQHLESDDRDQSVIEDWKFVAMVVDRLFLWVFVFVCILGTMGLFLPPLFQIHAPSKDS
# Description: All binding assays were performed according to procedures set forth in the University of North Carolina at Chapel Hill National Institute of Mental Health Psychoactive Drug Screening Program Assay Protocol Book (pp. 50-54; PI: Bryan L. Roth MD, PhD).
# Nicotinic receptors: α2β2, α2β4, α3β2, α3β4, α4β2, α4β4, endogenous α4β2. Assay buffer: 50 mM Tris-HCl, pH 7.4. Membrane fraction source: Stably transfected cell lines (e.g., HEK293, COS, CHO, NIH3T3) (α2β2, α2β4, α3β2, α3β4, α4β2, α4β4) or rat forebrain (α4β2).
# Aliquots (50 μl) of radioligand were dispensed into the wells of a 96-well plate containing 100 μl of assay buffer. Then, duplicate 50-0 aliquots of the test and reference compound dilutions were added. […]
# The 250-μl reactions were incubated at room temperature and shielded from light (to prevent photolysis of light-sensitive ligands) for 4 hours, then harvested by rapid filtration onto Whatman GF/B glass fiber filters pre-soaked with 0.5% polyethyleneimine using a 96-well Brandel harvester. […] The tubes were capped, labeled, and counted by liquid scintillation counting. […]
# Sequence of α-Bungarotoxin-insensitive (α4β2) neuronal nicotinic receptor (P09483 31-630): as the sequence (P09483 31-630) above
# Sequence of α-Bungarotoxin-insensitive (α4β2) neuronal nicotinic receptor (P12390 25-500): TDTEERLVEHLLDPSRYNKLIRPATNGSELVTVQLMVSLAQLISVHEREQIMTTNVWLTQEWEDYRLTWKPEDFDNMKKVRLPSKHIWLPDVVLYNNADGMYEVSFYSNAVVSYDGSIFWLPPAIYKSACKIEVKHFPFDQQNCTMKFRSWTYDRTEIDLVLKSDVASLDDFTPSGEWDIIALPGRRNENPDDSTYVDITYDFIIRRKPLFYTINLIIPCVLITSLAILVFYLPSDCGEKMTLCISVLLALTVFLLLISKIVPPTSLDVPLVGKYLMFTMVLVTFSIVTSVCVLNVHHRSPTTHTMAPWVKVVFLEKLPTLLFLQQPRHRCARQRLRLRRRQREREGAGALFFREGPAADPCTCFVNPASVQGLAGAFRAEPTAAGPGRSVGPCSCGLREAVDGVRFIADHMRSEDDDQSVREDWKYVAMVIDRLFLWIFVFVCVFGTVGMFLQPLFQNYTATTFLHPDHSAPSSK
Compound,inhibition at 0.1 µM [1] [%],further results
OCCCCC#Cc1cncc(OC[C@@H]2CCN2)c1 [AMOP—H—OH],,"effects in the forced swim test as indicated by a reduction in immobility time (male Balb/cJ mice; mouse, in vivo, ip): positive effects; Average Immobility Time (male Balb/cJ mice; mouse, in vivo, ip, 0.3 mg/kg): 116.7 s; Average Immobility Time (male Balb/cJ mice; mouse, in vivo, ip, 1 mg/kg): 20.2** seconds; Average Immobility Time (male Balb/cJ mice; mouse, in vivo, ip, 10 mg/kg): 5.3** seconds"
"OCC[C@H]1C[C@@H]1c1cncc(OC[C@@H]2CCN2)c1 [Example 2, 2-[(1R,2S)-2-[5-[(2(S)-Azetidinyl)methoxy]-3-pyridyl]cyclopropyl]ethanol]",59 to 100,"effects in the forced swim test as indicated by a reduction in immobility time (male Balb/cJ mice; mouse, in vivo, ip): positive effects; Average Immobility Time (male Balb/cJ mice; mouse, in vivo, ip, 10 mg/kg): 44** seconds; Average Immobility Time (male Balb/cJ mice; mouse, in vivo, ip, 20 mg/kg): 7** seconds"
"c1ccc(OC[C@H]2C[C@@H]2c2cncc(OC[C@@H]3CCN3)c2)cc1 [Example 11, 3-[(2(S)-Azetidinyl)methoxy]-5-[(1S,2S)-2-(phenoxymethyl)cyclopropyl]pyridine]",59 to 100,
"c1cncc(OC[C@H]2C[C@@H]2c2cncc(OC[C@@H]3CCN3)c2)c1 [Example 12, 3-[(2(S)-Azetidinyl)methoxy]-5-[(1S,2S)-2-[(3-pyridyloxy)methyl]cyclopropyl]pyridine]",59 to 100,
"c1ccc(COC[C@H]2C[C@@H]2c2cncc(OC[C@@H]3CCN3)c2)nc1 [Example 14, 3-[(2(S)-Azetidinyl)methoxy]-5-[(1S,2S)-2-[(2-pyridinylmethoxy)methyl]cyclopropyl]pyridine]",59 to 100,
"OCCCc1cccc(-c2cncc(OC[C@@H]3CCN3)c2)c1 [Example 15c, 3-[3-[5-[(2(S)-Azetidinyl)methoxy]-3-pyridyl]phenyl]-1-propanol]",59 to 100,"change in immobility time compared to the vehicle (male Balb/cJ mice; mouse, in vivo): did not show any change; reduction in immobility time compared to vehicle (male Balb/cJ mice; mouse, in vivo): 24.5 s; effects in the forced swim test as indicated by a reduction in immobility time (male Balb/cJ mice; mouse, in vivo, ip): positive effects; Average Immobility Time (male Balb/cJ mice; mouse, in vivo, ip, 5 mg/kg): 110.6 s; Average Immobility Time (male Balb/cJ mice; mouse, in vivo, ip, 10 mg/kg): 105.1** seconds and 85.3** seconds; Average Immobility Time (male Balb/cJ mice; mouse, in vivo, ip, 20 mg/kg): 49.7** seconds"
OCCCc1ccc(-c2cncc(OC[C@@H]3CCN3)c2)cc1 [Example 15d],59 to 100,
"OCCCc1cccc(-c2cncc(OC[C@H]3CCN3)c2)c1 [Example 19, 3-[3-[5-[(2(R)-Azetidinyl)methoxy]-3-pyridyl]phenyl]-1-propanol]",59 to 100,
"CC(=O)NCCCc1cccc(-c2cncc(OC[C@@H]3CCN3)c2)c1 [Example 22, N-(3-[3-[5-[(2(S)-Azetidinyl)methoxy]-3-pyridyl]phenyl]propyl]acetamide]",59 to 100,
"OCCc1cccc(-c2cncc(OC[C@@H]3CCN3)c2)c1 [Example 24, 2-[3-[5-[(2(S)-Azetidinyl)methoxy]-3-pyridyl]phenyl]ethanol]",59 to 100,
"c1ccc(COCCc2cccc(-c3cncc(OC[C@@H]4CCN4)c3)c2)cc1 [Example 27, 3-[((2S)-Azetidinyl)methoxy]-5-[3-[2-(benzyloxy)ethyl]phenyl]pyridine]",59 to 100,
"OCc1cc(-c2cncc(OC[C@@H]3CCN3)c2)on1 [Example 37, 5-[5-(2(S)-Azetidinylmethoxy)-3-pyridyl]-3-isoxazolylmethanol]",59 to 100,
"CN1CCC[C@H]1COc1cncc(-c2cc(CCCOc3ccccc3)no2)c1 [Example 41, 3-[(1-Methyl-2(S)-pyrrolidinyl)methoxy]-5-[3-(3-phenoxypropyl)-5-isoxazolyl]pyridine Hydrochloride]",59 to 100,
"c1ncc(N2CC3CC3C2)cc1OC[C@@H]1CCN1 (stereo partly drawn) [Example 46, 3-[5-[(2(S)-Azetidinyl)methoxy]-3-pyridyl]-3-azabicyclo[3.1.0]hexane]",59 to 100,
"c1ccc(COCCC2CCN(c3cncc(OC[C@@H]4CCCN4)c3)CC2)cc1 [Example 51, 3-[4-[2-(Benzyloxy)ethyl]-1-piperidinyl]-5-[(2(S)-pyrrolidinyl)methoxy]pyridine]",59 to 100,
"c1ccc(OCCC2CCN(c3cncc(OC[C@@H]4CCCN4)c3)CC2)cc1 [Example 58, 3-[4-(2-Phenoxyethyl)-1-piperidinyl]-5-[(2(S)-pyrrolidinyl)methoxy]pyridine]",8 to 28,
"c1ccc(COCCC2CCN(c3cncc(OC[C@H]4CCCN4)c3)CC2)cc1 [Example 62, 3-[4-[2-(Benzyloxy)ethyl]-1-piperidinyl]-5-[(2(R)-pyrrolidinyl)methoxy]pyridine]",8 to 28,
"Oc1ccc(OCCC2CCN(c3cncc(OC[C@@H]4CCCN4)c3)CC2)cc1 [Example 70, 4-[2-[1-[5-[(2(S)-Pyrrolidinyl)methoxy]-3-pyridyl]-4-piperidinyl]ethoxy]phenol]",8 to 28,
"CN[C@H]1CC[C@@H](c2ccc(Cl)c(Cl)c2)c2ccccc21 [Sertraline, sertraline, reference compound]",,"Average Immobility Time (male Balb/cJ mice; Table 2, 20 mg/kg i.p., 30 min before test, 6 min trial, vehicle 126.3): 11.99** seconds; Average Immobility Time (male Balb/cJ mice; Table 4, 10 mg/kg i.p., 30 min before test, 6 min trial, vehicle 115.2): 23.7** seconds; Average Immobility Time (male Balb/cJ mice; Table 5, 10 mg/kg i.p., 30 min before test, 6 min trial, vehicle 104.9): 47.8** seconds"
OCC[C@H]1C[C@@H]1c1cncc(OC[C@@H]2CCN2)c1 [drawing 418],,Ki (α4β4 nicotinic receptor): 83 nM
